Measurements published in patent US20080206819A1, “Intensified Perfusion Production Method” (priority 2006, published 2008).

Experiments:
Format in all cases: cell-based
[1] = tested on: Chinese hamster ovary (CHO) cell line; assay: Cell viability, traditional perfusion vs. RaMP (trypan blue staining)
Method: The production cell line used for all experiments is a CHO (Chinese Hamster Ovary) cell-derived cell line transfected with the desired construct to produce a recombinant IgG1 protein. For all of the experiments, the cell line was grown in the RBM12.1 media under selective pressure (100 μg/ml Hygromycin B and 500 nM methotrexate). The cells were seeded in at a density of 4×10^5 to 1×10^6 cells per milliliter, depending on bioreactor size. pH was kept at 7.1±0.05 and temperature was kept at 37° C.±0.5. The perfusion rate for both traditional perfusion and the methods of the invention (RaMP) was 1.0 to 2.0 volumes/day. The cell retention devices used were the hollow fiber system and/or the cell settler system. […] The cell settler system (retention by gravity) seem to overcome this problem. Sodium butyrate was introduced into the bioreactor after the cells reached the desired cell density (around 20 million cells/ml). Once sodium butyrate was introduced into the perfusion system, the cells were kept at that sodium butyrate condition until the next higher dose. This gradual ramping of sodium butyrate concentration was continued until the desired final concentration of sodium butyrate was reached. Once the desired sodium butyrate concentration is reached, the cells are grown in media in media containing the desired sodium butyrate concentration for the rest of the production run.
The mammalian host cell line used is a Chinese hamster ovary (CHO) cell line. This cell line has been transfected with the light and heavy chains of a chimeric IgG1 monoclonal antibody. The cells were grown in RBM12.1 medium under selective pressure (100 μg/ml Hygromycin B and 500 nM methotrexate (MTX). The medium used for this example contained the components in Table 1. Additional factors such as 10 μg/ml recombinant human insulin and 0.1% F68 are also added to the medium.
During the growth period, the cultures were controlled at pH 7.1±0.05 by the use of CO2 gas (acid) and/or Na2CO3 (base). Temperature was controlled at 37°±0.5 Celsius. Oxygen level was maintained at about 100% air saturation. For the initial growth period, CO2 level was maintained at 5%. When the cell density reached […] cells/ml, CO2 gas to the culture was turned off. The osmolality of the culture was maintained between 325 to 400 mOsm with minimal osmolality drift.
In a typical production schedule, 5×10^5 to 1×10^6 cells were inoculated into the cell culture bioreactor. 1 to 1.5 volumes of media was perfused daily. Cell density and viability was monitored by pulling a sample from the bioreactor and counted using trypan blue staining for live/dead cells.
Ten days after inoculation, the production period was started with the gradual addition of sodium butyrate (Na butyrate) into the RaMP cultures. 1.5 volume of RBM12.1 medium with 1 mM Na butyrate was perfused into the biorector on day 1 of the production period. This concentration of Na butyrate was kept in the bioreactor using the RaMP method for the duration of the production period. For cells in the traditional perfusion method, RBM12.1 media without Na butyrate was perfused into the bioreactor at the same perfusion rate as used in the RaMP method. Cell viability was monitored daily.

[2] = tested on: CHO (Chinese Hamster Ovary) cell-derived cell line; assay: Cell viability with gradual NaB ramping in perfusion culture (summary experiment)
Method: In one experiment, 0.5 mM NaB (final concentration) was introduced into the bioreactor by perfusing RBM12.1 medium with 0.5 mM NaB into the bioreactor on day 7 of the production run. On day 10, the bioreactor was perfused with RBM 12.1 medium with 1.0 mM NaB. On day 13, the bioreactor was perfused with RBM12.1 medium with 1.5 mM NaB.

[3] = tested on: Chinese hamster ovary (CHO) cell line; assay: Effect of increasing sodium butyrate concentrations on cell viability in perfusion culture
Method: Additional experiments using higher concentrations of sodium butyrate induction were also performed. The cells were seeded and grown similar to the conditions described above. On day 7, […] sodium butyrate was introduced into the perfusion medium. On day 10, the sodium butyrate concentration was increased to 1.0 mM. On day 12, the sodium butyrate concentration was increased to 2.0 mM. On day 14, the sodium butyrate concentration was increased to 4.0 mM and on day 17, the sodium butyrate concentration was increased to 8.0 mM. Throughout the experiment, cell viability was over 85% and the viable cell concentration reached over 4.8×10^7 cells/ml.

[4] = tested on: CHO (Chinese Hamster Ovary) cell-derived cell line; assay: Cell viability and cell density, Example 5 (RaMP)
Method: (§1) Cells were seeded at 5×10^5 cells/ml and were allowed to grow in the bioreactor for 6 days before the first harvest of recombinant protein on day 7. Conditions for this growth period are similar to those described in Example 1 above. Cells were grown in RBM12.1 media with a perfusion rate of 1 to 1.5 v/day. 1 mM sodium butyrate (final concentration) was added to perfusion medium and was perfused into the bioreactor on day 8. […] 2 mM sodium butyrate (final concentration) was added to the perfusion media and was perfused into the bioreactor on day 11. Cell viability was monitored daily by pulling samples from the bioreactor and trypan blue live/dead staining. Over the production run, the cell density reached upwards of 4.5×10^7 cells/ml. Using the RaMP method, the cell viability remained above 85% viable cells even with the sustained concentration of 2 mM sodium butyrate in the media. The average daily recombinant protein production reached over 0.6 g/L/day.

[5] = tested on: CHO (Chinese Hamster Ovary) cell-derived cell line; assay: Average daily recombinant protein production using RaMP, Example 5
Method: Samples of harvested media were taken from the daily harvest and frozen. At the end of the production run, the frozen daily samples were tested using an anti-IgG (recognizing only intact IgG) ELISA assay in order to determine the protein yields. FIG. 1 is a graphical representation of the average daily yield of recombinant protein from both traditional perfusion and RaMP methods.
as §1

CCCC(=O)[O-].[Na+] [sodium butyrate]
% viable cells (RaMP) ([1]; 1 mM Na butyrate perfused from start of production period, day 10): 97%
% viable cells (RaMP) ([1]; 1 mM Na butyrate, day 11): 97.6%
% viable cells (RaMP) ([1]; 1 mM Na butyrate, day 12): 96.4%
% viable cells (RaMP) ([1]; 1 mM Na butyrate, day 13): 97.1%
% viable cells (RaMP) ([1]; 1 mM Na butyrate, day 14): 95.7%
% viable cells (RaMP) ([1]; 1 mM Na butyrate, day 15): 96.1%
% viable cells (RaMP) ([1]; 1 mM Na butyrate, day 16): 97.2%
% viable cells (RaMP) ([1]; 1 mM Na butyrate, day 17): 96.4%
% viable cells (RaMP) ([1]; 1 mM Na butyrate, day 18): 97%
% viable cells (RaMP) ([1]; 1 mM Na butyrate, day 19): 96.9%
% viable cells (RaMP) ([1]; 1 mM Na butyrate, day 20): 95.8%
cell viability ([1]; RaMP method, 1 mM Na butyrate, production period): sustained high cell viability
cell viability ([2]; 0.5 mM NaB day 7, 1.0 mM day 10, 1.5 mM day 13): did not decrease
cell viability ([2]; gradual ramping of sodium butyrate to desired maximal concentration, compared to bolus addition): over 85%
% viable cells ([3]; Na butyrate 0.5 mM, day 7): 97.3%
% viable cells ([3]; Na butyrate 0.5 mM, day 8): 97.8%
% viable cells ([3]; Na butyrate 0.5 mM, day 9): 97.8%
% viable cells ([3]; Na butyrate 1.0 mM, day 10): 97.8%
% viable cells ([3]; Na butyrate 1.0 mM, day 11): 96.6%
% viable cells ([3]; Na butyrate 2.0 mM, day 12): 97.2%
% viable cells ([3]; Na butyrate 2.0 mM, day 13): 95.9%
% viable cells ([3]; Na butyrate 4.0 mM, day 14): 97%
% viable cells ([3]; Na butyrate 4.0 mM, day 15): 96.7%
% viable cells ([3]; Na butyrate 4.0 mM, day 16): 94.2%
% viable cells ([3]; Na butyrate 8.0 mM, day 17): 94.7%
% viable cells ([3]; Na butyrate 8.0 mM, day 18): 93.3%
% viable cells ([3]; Na butyrate 8.0 mM, day 19): 91.5%
% viable cells ([3]; Na butyrate 8.0 mM, day 20): 88.1%
cell viability ([3]; sodium butyrate stepped 0.5 to 8.0 mM, day 7 to day 17, throughout the experiment): over 85%
viable cell concentration ([3]; sodium butyrate stepped 0.5 to 8.0 mM, reached): over 4.8×10^7 cells/ml
cell density ([4]; RaMP, 1 mM then 2 mM sodium butyrate, over the production run): > 4.5×10^7 cells/ml
cell viability ([4]; after 1 mM sodium butyrate perfused on day 8): ≥ 85%
cell viability ([4]; sustained concentration of 2 mM sodium butyrate in the media (from day 11)): above 85%
average daily recombinant protein production ([5]; 1 mM then 2 mM sodium butyrate, reached): over 0.6 g/L/day
Average total production ([5]; sodium butyrate 1 mM, day 8 in culture): 102 mg/L/day
Average total production ([5]; sodium butyrate 1 mM, day 9 in culture): 159 mg/L/day
Average total production ([5]; sodium butyrate 1 mM, day 10 in culture): 343 mg/L/day
Average total production ([5]; sodium butyrate 2 mM, day 11 in culture): 381 mg/L/day
Average total production ([5]; sodium butyrate 2 mM, day 12 in culture): 332 mg/L/day
Average total production ([5]; sodium butyrate 2 mM, day 13 in culture): 590 mg/L/day
Average total production ([5]; sodium butyrate 2 mM, day 14 in culture): 498 mg/L/day
Average total production ([5]; sodium butyrate 2 mM, day 15 in culture): 577 mg/L/day
Average total production ([5]; sodium butyrate 2 mM, day 16 in culture): 549 mg/L/day
Average total production ([5]; sodium butyrate 2 mM, day 17 in culture): 526 mg/L/day
Average total production ([5]; sodium butyrate 2 mM, day 18 in culture): 684 mg/L/day
